# Data reported in patent US20110118269A1, “FUSED PYRAZINE COMPOUNDS AS THEIR SALTS, USEFUL FOR THE TREATMENT OF DEGENERATIVE AND INFLAMMATORY DISEASES” (priority 2009, published 2011).
# Tests used:
# [1] = Thermodynamic aqueous solubility study by HPLC (Example 5); type: physicochemical; settings: thermodynamic from solid
# From the text: Quantitation is done by HPLC with reference to a standard calibration curve. […] If there is sufficient solid remaining, the XRPD is collected.
# [2] = tested on: MMP1 expression by synovial fibroblasts; assay: 'MMP assay': complex trigger induced MMP1 expression by RASFs, compound testing; type: cell-based; settings: Homo sapiens, Fibroblast, 48 hrs
# Protocol: A 384-well format ELISA for measurement of MMP1 is developed. Various primary antibodies are tested, as well as various ELISA protocols. The following protocol is developed and validated to measure MMP1 levels in SF supernatant in 384 well plates: white Lumitrac 600 384 well plates (Greiner) are coated with 2 μg/mL anti-MMP1 antibody MAB1346 (Chemicon). The antibody is diluted in buffer 40 (1.21 g Tris base (Sigma), 0.58 g NaCl (Calbiochem) and 5 mL 10% NaN3 (Sigma) in 1 L milliQ water and adjusted to pH 8.5). After overnight incubation at 4° C., plates are washed with PBS (80 g NaCl, 2g KCl (Sigma), 11.5 g Na2HPO4.7H2O and 2 g KH2PO4 in 10 L milliQ; pH 7.4) and blocked with 100 μL/well Casein buffer (2% Casein (VWR International) in PBS). Next day, casein buffer is removed from ELISA plates and replaced by 50 μL/well EC buffer (4 g casein, 2.13 g Na2HPO4 (Sigma), 2 g bovine albumin (Sigma), 0.69 g NaH2PO4.H2O (Sigma), 0.5 g CHAPS (Roche), 23.3 g NaCl, 4 mL 0.5 M EDTA pH 8 (Invitrogen), 5 mL 10% NaN3 in 1 L milliQ and adjusted to pH 7.0). 0.25 mM DTT (Sigma) is added to the thawed samples plates. After removal of the EC buffer, 20 μL of sample is transferred to the ELISA plates. […] Readout is performed on the Luminoscan Ascent Luminometer (Labsystems) with an integration time of 200 msec or with an Envision reader (Perkin Elmer). […]
# [3] = tested on: Collagen-Induced Arthritis model; assay: CIA model; type: in vivo, mouse; settings: 3 or 30 mg/kg/d, daily for 14 days
# Protocol: Complete Freund Adjuvant/Collagen II (CFA/Coll II, bovine) is injected (1 mg/mL, 100 μL per animal) into the tail (intradermic) at the start of the experiment. Incomplete Freund Adjuvant /Collagen II (IFA/Coll II) is injected into the tail at the same level (1 mg/mL, 100 μL per animal) 21 days after CFA/Coll II injection. Animals are then randomized based on score and assigned to treatment groups assuring an equal distribution of score in the different groups. Treatment with either the test compound (1 mg/kg/d, 3 mg/kg/d or 30 mg/kg/d), positive control (Enbrel, 10 mg/kg/3× week, ip) or vehicle (Methyl Cellulose, 1% DMSO) starts at day 8 post IFA/Coll II-boost (i.e. […] of the experiment). Animals are dosed daily with the test compound, positive control or vehicle for 14 days. The animals are scored daily for clinical symptoms, scoring is reported for the individual paws. During the treatment period the body weight of the animals is monitored. Bone protection is analysed by x-ray imaging.
# TNF-α = assay: Septic shock model (LPS induced TNF alpha release); type: in vivo, BALB/cJ female mice; settings: 3, 10 and 20 mg/kg, po, once, 30 min before LPS
# Protocol: Injection of lipopolysaccharide (LPS) induces a rapid release of soluble tumour necrosis factor (TNF-α) into the periphery. This model is used to analyse prospective blockers of TNF release in vivo.
# Six BALB/cJ female mice (20 g) per group are treated at the intended dosing once, po. Thirty minutes later, LPS (15 mg/kg; E. coli serotype 0111:B4) is injected ip. Ninety minutes later, mice are euthanized and blood is collected. Circulating TNF alpha levels are determined using commercially available ELISA kits. Dexamethasone (5 mg/kg) is used as a reference anti-inflammatory compound. Compound 1 is efficacious at 3, 10 and 20 mg/kg, po.
smiles,measurement,setting,value
"CC(C)N1C[C@@H]2C[C@H]1CN2c1ccc(Nc2ncc(-c3coc(C(N)=O)c3)n3ncnc23)cc1 [Compound 1, 4-{8-[4-((1S,4S)-5-Isopropyl-2,5-diaza-bicyclo[2.2.1]hept-2-yl)-phenylamino]-[1,2,4]triazolo[1,5-a]pyrazin-5-yl}-furan-2-carboxamide]",solubility,"[1]; buffer pH 2.0, pH 2, aqueous buffer",300 µg/mL
same,solubility,"[1]; buffer pH 7.4, pH 7.4, aqueous buffer",10 µg/mL
same,solubility,"[1]; pure water, water",10 µg/mL
same,IC50,[2],100 to 1000 nM
same,efficacy in CIA model,[3],efficacious
same,efficacy in septic shock model (circulating TNF alpha levels),TNF-α,efficacious
